The record followed here is doi:10.1101/2024.06.14.598950v1 (biorxiv, 2024).

Among the test systems are Bju.IPMS1-B1; Bju.IPMS1-A1; Bju.IPMS1-B2; Bju.IPMS1-A2.
Holding throughout (assay): DTNB spectrophotometric assay, nonlinear regression
What all share (assay type): biochemical, Brassica juncea
What all share (details): 30 °C

In general, Km refers to the substrate concentration at which the rate is half of its maximum. As for `CC(C)C(=O)C(=O)O` [2-oxoisovalerate, 3-methyl-2-oxobutanoate], the Michaelis-Menten constant (Km) with Bju.IPMS1-B1 (0.5 mM acetyl-CoA) is 217 ± 67.2 µM; with Bju.IPMS1-A1 (0.5 mM acetyl-CoA), 158 ± 35.4 µM; in the test with Bju.IPMS1-B2 (0.5 mM acetyl-CoA) it was 231 ± 47.1 µM; with Bju.IPMS1-A2 (0.5 mM acetyl-CoA), 144 ± 40.9 µM.

Turning to `CC(=O)SCCNC(=O)CCNC(=O)[C@H](O)C(C)(C)COP(=O)(O)OP(=O)(O)OC[C@H]1O[C@@H](n2cnc3c(N)ncnc32)[C@H](O)[C@@H]1OP(=O)(O)O` [acetyl-CoA], the Km worked out at 1260 ± 369 µM in the test with Bju.IPMS1-B1 (1 mM 2-oxoisovalerate), 770 ± 211 µM with Bju.IPMS1-A1 (1 mM 2-oxoisovalerate), 532 ± 91.9 µM in the test with Bju.IPMS1-B2 (1 mM 2-oxoisovalerate) and 406 ± 75.9 µM in the test with Bju.IPMS1-A2 (1 mM 2-oxoisovalerate).
